# Experimental data as given in patent publication US20090104148A1, “Treatment and prevention of joint disease” (priority 2007, published 2009).
# Entries after “also recorded” stand apart in the source; their conditions may differ.
# Assays:
# Assay type in all cases: in vivo, Male Lewis rats
# [1] = system: ACL-transection (ACLT) model; assay: SF lavage lubricin levels by sandwich ELISA, ACL-transection model, Example 3; details: etanercept-treated ACLT joints vs non-treated ACLT joints, 0.5 mg/kg subcutaneously days 1, 3, 5, 7, 9, 11, 13, 2 weeks following ACLT
# Experimental: (§1) The following reagents and methods were used to evaluate inhibition of the effects of TNF-α by etanercept and the preservation of joint lubrication and decrease cartilage damage following an ACL injury. ACL-transection (ACLT) model and entanercept administration: Male Lewis rats 7-8 weeks were assigned to either an ACL-transection group (n=5), etanercept-treated ACL-transection group (n=5) or a sham-group (n=4). Etanercept was given subcutaneously at 0.5 mg/kg on days 1, 3, 5, 7, 9, 11, and 13 following ACLT. At 14 days following surgery, ACLT, contralateral (CL) and sham (S) joints were harvested and lavaged. Lavaging was performed by injecting 100 μl in the joint capsule, flexing and extending the joint for ten times and aspirating 50 μl of fluid. SF Lubricin levels: Lubricin levels were determined using sandwich ELISA employing a lubricin-specific monoclonal antibody, and peanut agglutinin (PNA). Ex-vivo joint μ: Articular joints' μ values were determined using modified Stanton pendulum (Elsaid K A et al, Arthritis Rheum 2007; 56:108-116). sGAG levels in SF lavages: Total sGAG levels were determined by Alcian blue binding assay.
# [2] = system: ACL-transection (ACLT) model; assay: Ex-vivo joint coefficient of friction (μ), modified Stanton pendulum, ACL-transection model, Example 3; details: etanercept-treated ACLT joints vs non-treated ACLT joints; 0.5 mg/kg subcutaneously days 1-13; 2 weeks following ACLT
# Experimental: as §1
# [3] = system: ACL-transection (ACLT) model; assay: sGAG levels in SF lavages by Alcian blue binding assay, ACL-transection model, Example 3; details: etanercept-treated vs non-treated joints; 0.5 mg/kg subcutaneously days 1-13; 2 weeks following ACLT
# Experimental: as §1
# ACL-transection model [4] = assay: SF lavage lubricin levels by sandwich ELISA, early vs late etanercept, ACL-transection model, Example 4; details: 28 days following transection
# Experimental: (§2) Etanercept was administered to animals, and condroprotection was evaluated using an ACL-transection model. Male Lewis rats 7-8 weeks were assigned to either an ACL-transection group (n=5), 2 etanercept-treated ACLT groups (n=12, 6 in each group) or a sham surgery group (n=4). Etanercept was given subcutaneously at 0.5 mg/kg on days 8, and 15 following transection (Treatment A) or on days 15 and 22 (Treatment B). At 28 days following transection, ACL-transected (ACLT), contralateral (CL) and sham joints were harvested and lavaged. Lavaging was performed by injecting 50 μl of normal saline in the joint capsule, flexing and extending the joint for ten times and then aspirating 30 μl of fluid.
# (§3) SF lubricin levels were determined using a sandwich ELISA employing a lubricin-specific monoclonal antibody such as 9G3, and peanut agglutinin. Surface-associated lubricin coverage was calculated from 9G3-stained histological specimens. Quantitiation of lubricin staining intensity was calculated using Image Pro-Plus software (Media Cybernetics, MD, USA) with pre-determined threshold parameters and expressed as percentage of lubricin surface coverage. An average of lubricin surface coverage of the medial and lateral regions of femur and tibial cartilage surfaces was calculated.
# ACL-transection model [5] = assay: Surface-associated lubricin coverage from 9G3-stained histological specimens, ACL-transection model, Example 4
# Experimental: as §2, §3
# ACL-transection model [6] = assay: Ex-vivo joint coefficient of friction (μ), modified Stanton pendulum, ACL-transection model, Example 4; details: 28 days following transection
substance,measurement,setting,value
etanercept,Lubricin SF lavage levels,[1],significantly (p<0.001) higher
same,Lubricin SF lavage levels,[1]; listed as ENBREL™,upregulation of lubricin
same,ex-vivo joint coefficient of friction (μ),[2],significantly (p=0.021) lower
same,sGAG SF lavage levels,[3],significantly (p<0.001) lower
same,SF lavage lubricin levels,"ACL-transection model [4]; Treatment A (0.5 mg/kg s.c. days 8 and 15), ACLT joints, vs ACLT control and treatment B",significantly (p<0.01) higher
same,SF lavage lubricin levels in CL joints,"ACL-transection model [4]; contralateral (CL) joints, treatments A and B vs other groups",comparable across the different groups
same,Lubricin coverage in the CL joints,"ACL-transection model [5]; contralateral (CL) joints, treatments A and B vs other groups, 28 days following transection",comparable across the different groups
same,lubricin layer in the superficial zone,"ACL-transection model [5]; inflamed rat joint following an ACL injury, ENBREL alone",reestablishes some of the lubricin layer in the superficial zone
same,Lubricin coverage of articular surfaces (percentage surface coverage),"ACL-transection model [5]; untreated ACLT joints compared to treatments A and B (0.5 mg/kg s.c.), 28 days following transection","significantly (p<0.01) lower than in treatment-A, treatment-B; also recorded: significantly (p<0.01) lower in the ACLT joints compared to treatments A, B"
same,mean coefficient of friction (μ),"ACL-transection model [6]; Treatment A (0.5 mg/kg s.c. days 8 and 15), ACLT joints",6.5*10^−4
same,mean coefficient of friction (μ),"ACL-transection model [6]; Treatment A (0.5 mg/kg s.c. days 8 and 15), CL joints",4.7*10^−4
same,mean coefficient of friction (μ),"ACL-transection model [6]; Treatment B (0.5 mg/kg s.c. days 15 and 22), ACLT joints",6.6*10^−4
same,mean coefficient of friction (μ),"ACL-transection model [6]; Treatment B (0.5 mg/kg s.c. days 15 and 22), CL joints",4.9*10^−4
same,"joints' μ values, treatments A and B vs untreated ACLT and sham joints",ACL-transection model [6]; treatments A and B,lower than the μ values of ACLT joints
